3 molecules from patent publication US7622448B2, “Compositions suitable for topical application to the skin” (L'Oreal, priority 2003, dated 2009) can be followed below.

The subject of the assay is isolated stratum corneum. Put plainly: Desquamating effect: counting corneocytes released from isolated stratum corneum. The settings on record: compound 2% by weight in 0.1% Triton X100 PBS buffer pH 7.4, 37° C., 24 hours; for Average number of corneocytes released, 1st skin sample: control 1; for Average number of corneocytes released, 2nd skin sample: control 4. The protocol:
The test consists in counting the corneocytes released after incubation of batches of isolated stratum corneum in the presence of three test compounds, corresponding to compounds F, G and K of Table 1.
Compounds F, G and K were each dissolved to 2% by weight in a 0.1% Triton X100 PBS buffer at pH 7.4.
Two different samples of stratum corneum isolated by trypsin/heat from plastic surgeries were used. SCI discs 4 mm in diameter were cut out using a punch and placed in the bottom of a 96-well dish. 50 μl of buffer containing the test compound were added to each well. Controls without compound were prepared. The tests were repeated three times. The incubation was performed at 37° C. with stirring for 24 hours. 10 μl were then taken up and placed in a Mallassez cell. The freed corneocytes were counted by microscope.

Regarding `CNC(=O)C(Cc1ccccc1)(C(=O)NC)[C@@H]1O[C@H](C)[C@H](O)[C@H](O)[C@H]1O` [Compound F, 2-benzyl-N,N′-dimethyl-2-(3,4,5-trihydroxy-6-methyltetrahydropyran-2-yl)malonamide], the “Average number of corneocytes released, 1st skin sample” value (shortened to “Average number … 1st skin sample”) is recorded as 5 and the “Average number of corneocytes released, 2nd skin sample” value (“Average number … 2nd skin sample” below) worked out at 12.

Turning to `CNC(=O)C(Cc1ccccc1)(C(=O)NC)[C@@H]1OC[C@@H](O)[C@H](O)[C@H]1O` [G], the “Average number … 1st skin sample” value worked out at 13 and the “Average number … 2nd skin sample” value is reported as 12.

Turning to `CNC(=O)C(Cc1ccccc1)(C(=O)NC)[C@@H]1O[C@H](CO)[C@@H](O)[C@H](O)[C@H]1O` [K], the “Average number … 1st skin sample” value worked out at 7 and the “Average number … 2nd skin sample” value was 5.
